Measurements published in US20250367173A1, “ECTONUCLEOTIDE PYROPHOSPHATASE-PHOSPHODIESTERASE-1 INHIBITORS AND PHARMACEUTICAL COMPOSITIONS COMPRISING THE SAME” (LigaChem Biosciences Inc., priority 2022, published 2025).

Key:
ENPP-1 [1] = target: T1, ENPP-1 (Homo sapiens, UniProt P22413); assay: ENPP-1 enzyme assay with cGAMP substrate; type: biochemical; settings: 200 pM ENPP-1, 10 μM substrate 2′3′-cGAMP, pH 7.4, 37° C., 30 minutes, Transcreener AMP2/GMP2 kit; average IC50
T1 construct: purchased Biovendor RD172124100
T1 sequence (P22413 1-925): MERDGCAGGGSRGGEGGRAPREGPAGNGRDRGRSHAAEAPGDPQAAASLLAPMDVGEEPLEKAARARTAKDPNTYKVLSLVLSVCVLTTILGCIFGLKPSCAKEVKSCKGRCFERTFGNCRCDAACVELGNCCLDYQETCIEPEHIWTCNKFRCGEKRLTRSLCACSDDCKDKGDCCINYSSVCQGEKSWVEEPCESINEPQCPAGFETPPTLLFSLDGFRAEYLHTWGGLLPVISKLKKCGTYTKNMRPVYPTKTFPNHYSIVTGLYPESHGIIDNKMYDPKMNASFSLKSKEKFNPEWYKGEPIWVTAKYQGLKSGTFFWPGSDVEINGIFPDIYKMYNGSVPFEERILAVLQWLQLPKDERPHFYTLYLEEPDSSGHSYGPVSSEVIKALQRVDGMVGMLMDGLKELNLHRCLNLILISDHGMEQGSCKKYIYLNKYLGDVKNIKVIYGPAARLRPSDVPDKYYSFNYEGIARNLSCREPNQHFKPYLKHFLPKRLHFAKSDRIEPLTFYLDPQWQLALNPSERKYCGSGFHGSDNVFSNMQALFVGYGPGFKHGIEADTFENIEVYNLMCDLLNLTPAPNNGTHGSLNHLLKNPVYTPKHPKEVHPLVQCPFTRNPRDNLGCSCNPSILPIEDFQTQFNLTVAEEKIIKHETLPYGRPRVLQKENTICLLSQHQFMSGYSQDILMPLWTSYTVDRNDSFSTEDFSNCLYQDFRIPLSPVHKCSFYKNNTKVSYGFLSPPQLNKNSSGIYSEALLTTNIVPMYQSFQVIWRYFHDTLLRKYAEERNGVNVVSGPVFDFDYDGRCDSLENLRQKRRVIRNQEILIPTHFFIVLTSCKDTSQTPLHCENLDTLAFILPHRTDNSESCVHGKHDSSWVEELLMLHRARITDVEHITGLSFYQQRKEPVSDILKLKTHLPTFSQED
Protocol: 2′3′-cGAMP is a natural substrate specifically hydrolyzed by ENPP-1, and produces 5′-adenosine monophosphate (AMP) and 5′-guanosine monophosphate (GMP). AMP and GMP produced from the reaction are monitored for ENPP-1 enzyme activity through an AMP^2/GMP^2 ENPP-1 Assay kit (Bellbrook Labs, catalog number 3015).
First, the reaction mixture contains 25 mM Tris-HCl (pH 7.4), 5 mM MgCl2, 0.01% Brij-35, and 1% DMSO. Serially diluted ENPP-1 inhibitors (test compound concentrations ranging from 10 μM to 0.5 nM) are reacted with 200 pM ENPP-1 (Biovendor, catalog number RD172124100) and 10 μM substrate 2′3′-cGAMP at 37° C. for 30 minutes. All assays include a DMSO control without ENPP-1 inhibitor that provides maximal AMP and GMP production. After 30 minutes of this reaction, AMP and GMP production is detected as a measure of ENPP-1 enzymatic activity using the Transcreener® AMP^2/GMP^2 ENPP-1 Assay kit. The detection reagent is a reagent containing 16 nM AMP^2/GMP^2 Antibody-Tb, 25 mM Tris-HCl and 60.1 nM AMP/GMP HiLyte647 Tracer, which is added by 5 μl, mixed well, and incubated at 25° C. for 2 hours.
(§1) The […] signal is measured using a SPARK Cyto plate reader (Tecan). Inhibition (%) is calculated using the following formula: (Max 615:665 ratio-615:665 ratio)/Max 615:665 ratio×100%. % residual ENPP-1 enzyme activity versus IC50 values for ENPP-1 inhibitor concentrations were determined by fitting inhibition curves using the 4-parameter method of GraphPad Prism® software [GraphPad version 9.3.1 for Windows, GraphPad Software, La Jolla California USA, www.graphpad.com].

ENPP-1 [2] = target: T1, ENPP-1; assay: ENPP-1 enzyme assay with pNP-TMP substrate; type: biochemical; settings: 12.5 ng ENPP-1, 720 μM substrate pNP-TMP, pH 9.0, 37° C., 60 minutes, absorbance 405 nm; average IC50
Protocol: In order to measure the ENPP-1 inhibitory activity of the compounds according to the present disclosure, the following tests were performed.
ENPP-1 hydrolyzes a variety of substrates, including phosphodiester bonds of nucleotides and nucleotide sugars and pyrophosphate bonds of nucleotides and nucleotide sugars. p-Nitrophenyl 5′-thymidine monophosphate (p-Nph-5′-TMP) is an artificial substrate for 5′-adenosine monophosphate (AMP), which is hydrolyzed by the human recombinant ENPP-1 enzyme. In the above reaction, ENPP-1 enzymatic activity is monitored through the formation of yellow p-nitrophenolate, which absorbs at 405 nm.
First, the reaction mixture contains 100 mM Tris-HCl (pH 9.0), 150 mM NaCl, […], and 1% DMSO. Serially diluted ENPP-1 inhibitors (test compound concentrations ranging from 10 μM to 0.5 nM) are reacted with 12.5 ng of ENPP-1 (Biovendor, catalog number RD172124100) and 720 μM substrate pNP-TMP at 37° C. for 60 minutes. All assays include a DMSO control without ENPP-1 inhibitor that gives maximum absorbance.
as §1, with “After 60 minutes of this reaction, the” for “The”, “an Epoch™ Microplate Spectrophotometer (BioTek Instruments Inc.).” for “a SPARK Cyto plate reader (Tecan).”, “Sample OD405 nm/Max OD405 nm×100%.” for “(Max 615:665 ratio-615:665 ratio)/Max 615:665 ratio×100%.”

COc1ccc2c(c1)c1c(n2Cc2ccc(S(N)(=O)=O)cc2)CCCN1 [Compound 38, 4-((8-methoxy-1,2,3,4-tetrahydro-5H-pyrido[3,2-b]indol-5-yl)methyl)benzenesulfonamide]
IC50 (ENPP-1 [1]): < 1000 nM
IC50 (ENPP-1 [2]): < 1000 nM

COc1ccc2c(c1)c1c(n2Cc2ccc(S(N)(=O)=O)cc2)CCNC1=O [Compound 41, 4-((8-methoxy-1-oxo-1,2,3,4-tetrahydro-5H-pyrido[4,3-b]indol-5-yl)methyl)benzene sulfonamide]
IC50 (ENPP-1 [1]): 1000 to 10000 nM
IC50 (ENPP-1 [2]): < 1000 nM

COc1ccc2c3c(n(Cc4ccc(S(N)(=O)=O)cc4)c2c1)CCNC3=O [Compound 42, 4-((7-methoxy-1-oxo-1,2,3,4-tetrahydro-5H-pyrido[4,3-b]indol-5-yl)methyl)benzene sulfonamide]
IC50 (ENPP-1 [1]): < 1000 nM
IC50 (ENPP-1 [2]): < 1000 nM

COc1ccc2c3c(=O)[nH]ccc3n(Cc3ccc(S(N)(=O)=O)cc3)c2c1 [Compound 43, 4-((7-methoxy-1-oxo-1,2-dihydro-5H-pyrido[4,3-b]indol-5-yl)methyl)benzenesulfonamide]
IC50 (ENPP-1 [1]): 1000 to 10000 nM
IC50 (ENPP-1 [2]): < 1000 nM

COc1ccc2c(c1)c1c(=O)[nH]ncc1n2Cc1ccc(S(N)(=O)=O)cc1 [Compound 44, 4-((8-methoxy-1-oxo-1,2-dihydro-5H-pyridazino[4,5-b]indol-5-yl)methyl)benzene sulfonamide]
IC50 (ENPP-1 [1]): < 1000 nM
IC50 (ENPP-1 [2]): < 1000 nM

COc1ccc2c3c(=O)[nH]ncc3n(Cc3ccc(S(N)(=O)=O)cc3)c2c1 [Compound 45, 4-((7-methoxy-1-oxo-1,2-dihydro-5H-pyridazino[4,5-b]indol-5-yl)methyl)benzene sulfonamide]
IC50 (ENPP-1 [1]): < 1000 nM
IC50 (ENPP-1 [2]): < 1000 nM

COc1ccc2c3c(=O)[nH]ncc3n(Cc3ccc(S(C)(=N)=O)cc3)c2c1 (stereo not drawn) [Compound 46, 7-methoxy-5-(4-(S-methylsulfonimidoyl)benzyl)-2,5-dihydro-1H-pyridazino[4,5-b]indol-1-one]
IC50 (ENPP-1 [1]): < 1000 nM
IC50 (ENPP-1 [2]): < 1000 nM

COc1ccc2c3cnncc3n(Cc3ccc(S(N)(=O)=O)cc3)c2c1 [Compound 47, 4-((7-methoxy-5H-pyridazino[4,5-b]indol-5-yl)methyl)benzenesulfonamide]
IC50 (ENPP-1 [1]): 1000 to 10000 nM
IC50 (ENPP-1 [2]): < 1000 nM

COc1ccc2c3cncnc3n(Cc3ccc(S(N)(=O)=O)cc3)c2c1 [Compound 48, 4-((7-methoxy-9H-pyrimido[4,5-b]indol-9-yl)methyl)benzenesulfonamide]
IC50 (ENPP-1 [1]): 1000 to 10000 nM
IC50 (ENPP-1 [2]): < 1000 nM

COc1ccc2c(c1)c1cccnc1n2Cc1ccc(S(N)(=O)=O)cc1 [Compound 49, 4-((6-methoxy-9H-pyrido[2,3-b]indol-9-yl)methyl)benzenesulfonamide]
IC50 (ENPP-1 [1]): 1000 to 10000 nM
IC50 (ENPP-1 [2]): < 1000 nM

COc1ccc2c(c1)c1ncncc1n2Cc1ccc(S(N)(=O)=O)cc1 [Compound 51, 4-((8-methoxy-5H-pyrimido[5,4-b]indol-5-yl)methyl)benzenesulfonamide]
IC50 (ENPP-1 [1]): < 1000 nM
IC50 (ENPP-1 [2]): < 1000 nM

COc1ccc2c3cnccc3n(Cc3ccc(S(N)(=O)=O)cc3)c2c1 [Compound 52, 4-((7-methoxy-5H-pyrido[4,3-b]indol-5-yl)methyl)benzenesulfonamide]
IC50 (ENPP-1 [1]): 1000 to 10000 nM
IC50 (ENPP-1 [2]): < 1000 nM

COc1ccc2c3ncccc3n(Cc3ccc(S(N)(=O)=O)cc3)c2c1 [Compound 53, 4-((7-methoxy-5H-pyrido[3,2-b]indol-5-yl)methyl)benzenesulfonamide]
IC50 (ENPP-1 [1]): < 1000 nM
IC50 (ENPP-1 [2]): < 1000 nM

COc1cc2c3ncccc3n(Cc3ccc(P(=O)(O)O)cc3)c2cc1F [Compound 57, (4-((7-fluoro-8-methoxy-5H-pyrido[3,2-b]indol-5-yl)methyl)phenyl)phosphonic acid]
IC50 (ENPP-1 [1]): < 1000 nM
IC50 (ENPP-1 [2]): < 1000 nM

COc1ccc2c(c1)c1ncccc1n2Cc1ccc(C(F)(F)P(=O)(O)O)cc1 [Compound 58, (difluoro (4-((8-methoxy-5H-pyrido[3,2-b]indol-5-yl)methyl)phenyl)methyl)phosphonic acid]
IC50 (ENPP-1 [1]): 1000 to 10000 nM
IC50 (ENPP-1 [2]): < 1000 nM
